Results from patent US8399462B2, “JNK modulators” (Roche Palo Alto LLC, priority 2006, dated 2013).

Row | SMILES | melting point [°C]
1 | COCCOCc1cccc2c1ccn2-c1ccnc(N[C@H]2CC[C@H](N(C)S(C)(=O)=O)CC2)n1 [Compound 160, N-(4-{4-[4-(2-methoxy-ethoxymethyl)-indol-1-yl]-pyrimidin-2-ylamino}-cyclohexyl)-N-methyl-methane-sulfonamide] | 154 to 156.5
2 | CC1(C)OC[C@@H](COc2cccc3c2cnn3-c2ccnc(N[C@H]3CC[C@H](C(=O)N4CCCC4)CC3)n2)O1 (stereo in doubt) [Compound 127, (4-{4-[4-(2,2-dimethyl-[1,3]dioxolan-4-yl-methoxy)-indazol-1-yl]-pyrimidin-2-ylamino}-cyclohexyl)-pyrrolidin-1-ylmethanone] | 196 to 198
3 | NS(=O)(=O)CCCOc1cccc2c1cnn2-c1ccnc(N[C@H]2CC[C@H](C(=O)N3CC[C@@H](O)C3)CC2)n1 (stereo in doubt) [Compound 253, 3-(1-{2-[4-(3-hydroxy-pyrrolidine-1-carbonyl)-cyclohexylamino]-pyrimidin-4-yl}-1H-indazol-4-yloxy)-propane-1-sulfonic acid amide] | 178 to 179
4 | O=C([C@H]1CC[C@H](Nc2nccc(-n3ccc4c(C5(O)CCS(=O)(=O)CC5)cccc43)n2)CC1)N1CCC(O)CC1 [Compound 231, (4-{4-[4-(4-hydroxy-1,1-dioxo-hexahydro-thiopyran-4-yl)-indol-1-yl]-pyrimidin-2-yl-amino}-cyclohexyl)-(4-hydroxy-piperidin-1-yl)-methanone] | 271 to 272
5 | CS(=O)(=O)N[C@H]1CC[C@H](Nc2nccc(-n3ccc4c(OCCCC(F)(F)F)cccc43)n2)CC1 [Compound 235, N-(4-{4-[4-(4,4,4-tri-fluoro-butoxy)-indol-1-yl]-pyrimidin-2-yl-amino}-cyclohexyl)-methanesulfonamide] | 241 to 242
6 | CS(=O)(=O)CCCOc1cccc2c1cnn2-c1ccnc(N[C@H]2CC[C@H](N3CCCS3(=O)=O)CC2)n1 [Compound 215, [4-(1,1-dioxo-isothiazolidin-2-yl)-cyclohexyl]-{4-[4-(3-methane-sulfonyl-propoxy)-indazol-1-yl]-pyrimidin-2-yl}-amine] | 206 to 207
7 | CS(=O)(=O)N[C@H]1CC[C@H](Nc2ncc(Cl)c(-n3ccc4ccccc43)n2)CC1 [Compound 118, N-[4-(5-chloro-4-indol-1-ylpyrimidin-2-yl-amino)-cyclohexyl]-methanesulfonamide] | 203.8 to 204.9
8 | N#CCc1cccc2c1ccn2-c1ccnc(N[C@H]2CC[C@H](O)CC2)n1 [Compound 101, {1-[2-(4-hydroxy-cyclo-hexylamino)-pyrimidin-4-yl]-1H-indol-4-yl}-acetonitrile] | 207 to 209
9 | CC(O)c1cccc2c1ccn2-c1ccnc(N[C@H]2CC[C@H](NS(C)(=O)=O)CC2)n1 (some centres unmarked) [Compound 135, N-(4-{4-[4-(1-hydroxy-ethyl)-indol-1-yl]-pyrimidin-2-ylamino}-cyclohexyl)-methane-sulfonamide] | 244.5 to 245.3
10 | COc1cccc2c1c(C(N)=O)cn2-c1ccnc(N[C@H]2CC[C@H](C(=O)N3CCC(O)CC3)CC2)n1 [Compound 282, 1-{2-[4-(4-hydroxy-piperidine-1-carbonyl)-cyclohexylamino]-pyrimidin-4-yl}-4-methoxy-1H-indole-3-carboxylic acid amide] | 278 to 280
11 | CC(=O)NCc1cccc2c1ccn2-c1ccnc(N[C@H]2CC[C@H](N(C)S(C)(=O)=O)CC2)n1 [Compound 205, N-(1-{2-[4-(methane-sulfonyl-methylamino)-cyclohexylamino]-pyrimidin-4-yl}-1H-indol-4-ylmethyl)-acetamide] | 210.5 to 212
12 | CC1(O)CCC(Nc2nccc(-n3ncc4ccccc43)n2)CC1 (centres unmarked) [Example 13, 4-(4-Indazol-1-ylpyrimidin-2-ylamino)-1-methylcyclohexanol] | 168.1 to 170.1
13 | CS(=O)(=O)CCCOc1cccc2c1ccn2-c1ccnc(N[C@H]2CC[C@H](C(=O)N3CCC(=O)CC3)CC2)n1 | 155 to 158.2
14 | CN(C1CCC(Nc2nccc(-n3cc(S(N)(=O)=O)c4ccccc43)n2)CC1)S(C)(=O)=O (centres unmarked) [Compound 321, 1-{2-[4-(methanesulfonyl-methyl-amino)-cyclohexylamino]-pyrimdin-4-yl}-1H-indole-3-sulfonic acid amide] | 246.6 to 248.2
15 | Oc1cccc2c1cnn2-c1ccnc(N[C@H]2CC[C@H](O)CC2)n1 [Compound 242, 1-[2-(4-hydroxy-cyclohexylamino)-pyrimidin-4-yl]-1H-indazol-4-ol] | > 300
16 | CS(=O)(=O)CCCOc1cccc2c1cnn2-c1ccnc(N[C@H]2CC[C@H](C(=O)N3CC[C@H](O)C3)CC2)n1 (stereo in doubt) [Compound 217, (3-hydroxy-pyrrolidin-1-yl)-(4-{4-[4-(3-methane-sulfonyl-propoxy)-indazol-1-yl]-pyrimidin-2-ylamino}-cyclohexyl)-methanone] | 175 to 176

Row | SMILES | melting point [°C]
17 | CN([C@H]1CC[C@H](Nc2nccc(-n3ncc4c(OCCCNS(C)(=O)=O)cccc43)n2)CC1)S(C)(=O)=O [Compound 197, N-[3-(1-{2-[4-(methane-sulfonyl-methylamino)-cyclohexylamino]-pyrimidin-4-yl}-1H-indazol-4-yloxy)-propyl]-methane-sulfonamide] | 259 to 259.5
18 | CS(=O)(=O)CCCOc1cccc2c1ccn2-c1ccnc(N[C@H]2CC[C@H](CN3CC[C@@H](O)C3)CC2)n1 [Compound 317, 1-(4-{4-[4-(3-methanesulfonyl-propoxy)-indol-1-yl]-pyirmidin-2-ylamino}-cyclohexylmethyl)-pyrrolidin-3-ol] | 139.6 to 150.3
19 | CC(C)(O)[C@H]1CC[C@H](Nc2nccc(-n3ccc4c(S(C)(=O)=O)cccc43)n2)CC1 [Compound 209, 2-{4-[4-(4-methane-sulfonyl-indol-1-yl)-pyrimidin-2-ylamino]-cyclohexyl}-propan-2-ol] | 217.8 to 218.5
20 | Oc1ccc2c(ccn2-c2ccnc(N[C@H]3CC[C@H](O)CC3)n2)c1 [Example 9, trans-1-[2-(4-Hydroxycyclohexylamino)-pyrimidin-4-yl]-1H-indol-5-ol] | 246.5 to 248
21 | O=c1[nH]n(-c2ccnc(N[C@H]3CC[C@H](O)CC3)n2)c2ccccc12 [Example 16, trans-1-[2-(4-hydroxycyclohexylamino)-pyrimidin-4-yl]-1,2-dihydroindazol-3-one] | 263.5 to 264.4
22 | NS(=O)(=O)CCCOc1cccc2c1cnn2-c1ccnc(N[C@H]2CC[C@H](C(=O)N3CC[C@H](O)C3)CC2)n1 (stereo in doubt) [Compound 252, 3-(1-{2-[4-(3-hydroxy-pyrrolidine-1-carbonyl)-cyclohexylamino]-pyrimidin-4-yl}-1H-indazol-4-yloxy)-propane-1-sulfonic acid amide] | 161 to 162
23 | COC(=O)CCCOc1cccc2c1ccn2-c1ccnc(N[C@H]2CC[C@H](N(C)S(C)(=O)=O)CC2)n1 [Compound 284, 4-(1-{2-[4-(methane-sulfonyl-methylamino)-cyclohexylamino]-pyrimidin-4-yl}-1H-indol-4-yloxy)-butyric acid methyl ester] | 145 to 146
24 | COC(=O)c1cccc2c1ccn2-c1ccnc(N[C@H]2CC[C@H](O)CC2)n1 [Compound 37, 1-[2-(4-hydroxycyclo-hexylamino)-pyrimidin-4-yl]-1H-indole-4-carboxylic acid methyl ester] | 206.7 to 208.3
25 | CS(=O)(=O)CCCOc1cccc2c1ccn2-c1ccnc(N[C@H]2CC[C@H](NS(=O)(=O)CCCN3CCOCC3)CC2)n1 [Compound 280, 3-morpholin-4-yl-pro-pane-1-sulfonic acid (4-{4-[4-(3-methane-sulfonyl-propoxy)-indol-1-yl]-pyrimidin-2-yl-amino}-cyclohexyl)-amide] | 174 to 179.3
26 | CS(=O)(=O)N[C@H]1CC[C@H](Nc2nccc(-n3ncc4c(OCCCS(N)(=O)=O)cccc43)n2)CC1 [Compound 228, 3-{1-[2-(4-methane-sulfonylamino-cyclo-hexylamino)-pyrimidin-4-yl]-1H-indazol-4-yloxy}-propane-1-sulfonic acid amide] | 250 to 251
27 | CS(=O)(=O)CCCOc1cccc2c1ccn2-c1ccnc(N[C@H]2CC[C@H](C(=O)N3CCCC(O)C3)CC2)n1 (some centres unmarked) [Compound 291, (3-hydroxy-piperidin-1-yl)-(4-{4-[4-(3-methane-sulfonyl-propoxy)-indol-1-yl]-pyrimidin-2-ylamino}-cyclohexyl)-methanone] | 167.3 to 170.5
28 | CS(=O)(=O)CCCOc1cccc2c1ccn2-c1ccnc(N[C@H]2CC[C@H](C(=O)N3CCC(F)CC3)CC2)n1 [Compound 239, (4-fluoro-piperidin-1-yl)-(4-{4-[4-(3-methane-sulfonyl-propoxy)-indol-1-yl]-pyrimidin-2ylamino}-cyclohexyl)-methanone] | 115 to 116
29 | CS(=O)(=O)C[C@H](O)COc1cccc2c1cnn2-c1ccnc(N[C@H]2CC[C@H](O)CC2)n1 (stereo in doubt) [Compound 198, 4-{4-[4-(2-hydroxy-3-methanesulfonyl-propoxy)-indazol-1-yl]-pyrimidin-2-ylamino}-cyclohexanol] | 211 to 212
30 | COc1cccc2c(-c3ccnc(N[C@H]4CC[C@H](O)CC4)n3)n[nH]c12 [Compound 80, 4-[4-(7-methoxy-1H-indazol-3-yl)-pyrimidin-2-ylamino]-cyclo-hexanol] | 243.3 to 244.9
31 | CS(=O)(=O)N[C@H]1CC[C@H](Nc2nccc(-n3ccc4c(N5CCC(O)C5)cccc43)n2)CC1 (some centres unmarked) [Compound 312, N-(4-{4-[4-(3-hydroxy-pyrrolidin-1-yl)-indol-1-yl]-pyrimidin-2-yl-amino}-cyclohexyl)-methanesulfonamide] | 190.1 to 200.5
32 | COCCOc1cccc2c1ccn2-c1ccnc(N[C@H]2CC[C@H](C(=O)N3CCC(O)CC3)CC2)n1 [Compound 222, (4-hydroxy-piperidin-1-yl)-(4-{4-[4-(2-methoxy-ethoxy)-indol-1-yl]-pyrimidin-2-ylamino}-cyclohexyl)-methanone] | 134 to 135
